{"source": "paper PMC11647725", "about": "“Discovery of 4-(5-Membered)Heteroarylether-6-methylpicolinamide Negative Allosteric Modulators of Metabotropic Glutamate Receptor Subtype 5” (ACS Medicinal Chemistry Letters, 2024)", "key": {"human mGlu7": {"biological_target": "T1, human mGlu7 (Homo sapiens, UniProt Q14831)", "T1 construct": "expressed in transfected cells", "T1 sequence (Q14831 35-915)": "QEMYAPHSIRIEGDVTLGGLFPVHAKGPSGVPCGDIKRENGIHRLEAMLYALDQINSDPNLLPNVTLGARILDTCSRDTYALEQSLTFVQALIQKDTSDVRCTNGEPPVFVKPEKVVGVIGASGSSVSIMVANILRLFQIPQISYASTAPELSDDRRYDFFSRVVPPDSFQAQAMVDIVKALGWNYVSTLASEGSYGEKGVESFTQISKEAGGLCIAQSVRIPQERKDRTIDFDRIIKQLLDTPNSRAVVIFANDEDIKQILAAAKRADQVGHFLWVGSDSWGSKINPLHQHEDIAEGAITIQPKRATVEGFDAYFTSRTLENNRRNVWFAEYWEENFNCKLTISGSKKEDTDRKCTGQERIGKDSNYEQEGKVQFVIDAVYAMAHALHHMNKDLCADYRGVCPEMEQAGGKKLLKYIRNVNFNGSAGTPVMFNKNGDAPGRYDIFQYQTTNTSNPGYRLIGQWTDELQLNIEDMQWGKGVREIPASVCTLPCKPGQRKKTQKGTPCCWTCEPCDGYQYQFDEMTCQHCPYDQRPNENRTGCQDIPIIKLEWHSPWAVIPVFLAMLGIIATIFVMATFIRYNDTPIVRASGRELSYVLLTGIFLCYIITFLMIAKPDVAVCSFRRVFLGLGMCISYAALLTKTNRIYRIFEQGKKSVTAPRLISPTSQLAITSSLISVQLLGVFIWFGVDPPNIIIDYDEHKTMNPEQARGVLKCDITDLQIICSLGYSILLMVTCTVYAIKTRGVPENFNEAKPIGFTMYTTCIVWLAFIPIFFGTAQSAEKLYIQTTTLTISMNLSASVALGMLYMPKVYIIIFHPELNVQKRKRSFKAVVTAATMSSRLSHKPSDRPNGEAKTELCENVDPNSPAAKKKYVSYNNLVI", "assay": "mGlu selectivity, calcium mobilization assay", "format": "cell-based", "method": "(§1) the presence of 5% CO2, the dye solutions were removed and replaced with assay buffer using a microplate washer, leaving 20 μL of assay buffer in the cell plate. The compound, agonist, and cell plates were placed inside the Functional Drug Screening System (FDSS 7000 or uCell, Hamamatsu, Japan) to measure the calcium flux. Assays were run at 37 °C. A triple add protocol was used to measure Ca kinetics. Briefly, after establishment of a fluorescence baseline for 2 seconds (excitation, 480 nm; emission, 530 nm), 20 µL of test compound was added to the cells and the response was measured for 140 seconds. This was followed by the addition of 10 µL (5X) of an EC20 concentration of Glu agonist, and the response of the cells was measured for 125 seconds. A third addition occurred by adding 12 uL (5X) of an EC80 concentration of Glu agonist and the response of the cells was measured for 90 seconds. […] Calcium fluorescence was recorded as fold over basal fluorescence and raw data were normalized to the maximal response to Glu agonist (ECMax). Compound-evoked decreases in calcium response in the presence of Glu EC80 agonist were determined as inhibition activity, and potency (IC50) and maximum inhibition responses (% GluMin) of compounds were determined using a four-parameter logistical equation using GraphPad Prism (La Jolla, CA) or the Dotmatics software platform (Woburn, MA) : […]"}, "human mGlu8": {"biological_target": "T2, human mGlu8 (Homo sapiens, UniProt O00222)", "T2 construct": "expressed in transfected cells", "T2 sequence (O00222 34-908)": "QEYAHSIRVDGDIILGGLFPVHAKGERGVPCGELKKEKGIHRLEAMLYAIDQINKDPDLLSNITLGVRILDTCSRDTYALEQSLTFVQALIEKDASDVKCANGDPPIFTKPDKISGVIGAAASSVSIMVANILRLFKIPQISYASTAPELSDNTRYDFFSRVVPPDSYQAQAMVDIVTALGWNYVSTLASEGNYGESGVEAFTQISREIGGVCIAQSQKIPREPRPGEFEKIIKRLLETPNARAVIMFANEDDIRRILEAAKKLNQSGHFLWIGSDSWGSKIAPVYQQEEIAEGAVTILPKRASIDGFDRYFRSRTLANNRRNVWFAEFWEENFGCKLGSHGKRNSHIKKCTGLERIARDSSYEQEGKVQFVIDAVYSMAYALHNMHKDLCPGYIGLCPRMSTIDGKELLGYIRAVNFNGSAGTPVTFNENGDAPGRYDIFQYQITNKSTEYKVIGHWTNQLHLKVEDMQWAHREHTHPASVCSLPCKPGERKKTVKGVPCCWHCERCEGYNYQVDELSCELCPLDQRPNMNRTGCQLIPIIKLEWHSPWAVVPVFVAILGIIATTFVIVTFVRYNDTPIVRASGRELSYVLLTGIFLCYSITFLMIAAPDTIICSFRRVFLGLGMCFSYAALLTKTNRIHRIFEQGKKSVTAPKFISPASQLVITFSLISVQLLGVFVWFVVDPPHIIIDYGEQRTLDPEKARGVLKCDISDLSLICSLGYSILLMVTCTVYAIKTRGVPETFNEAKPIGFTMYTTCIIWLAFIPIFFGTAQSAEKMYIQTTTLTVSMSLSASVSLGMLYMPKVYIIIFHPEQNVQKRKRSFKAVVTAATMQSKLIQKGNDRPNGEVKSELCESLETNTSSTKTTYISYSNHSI", "assay": "mGlu selectivity, calcium mobilization assay", "format": "cell-based", "method": "as §1"}, "Adenosine A2A": {"biological_target": "Adenosine A2A (Homo sapiens, UniProt P29274)", "sequence (P29274 whole entry)": "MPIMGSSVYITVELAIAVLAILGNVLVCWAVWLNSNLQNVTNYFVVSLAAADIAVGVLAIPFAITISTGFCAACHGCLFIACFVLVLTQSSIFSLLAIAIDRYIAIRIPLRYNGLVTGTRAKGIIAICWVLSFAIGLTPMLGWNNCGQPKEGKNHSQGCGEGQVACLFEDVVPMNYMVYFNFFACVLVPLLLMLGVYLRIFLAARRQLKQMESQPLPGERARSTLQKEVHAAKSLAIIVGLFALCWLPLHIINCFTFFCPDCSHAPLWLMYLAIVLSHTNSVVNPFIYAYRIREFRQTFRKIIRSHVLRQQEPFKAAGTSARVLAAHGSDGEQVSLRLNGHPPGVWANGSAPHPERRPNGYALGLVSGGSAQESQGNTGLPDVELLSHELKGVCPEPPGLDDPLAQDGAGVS", "assay": "Lead Profiling Screen, Eurofins Panlabs", "format": "binding", "conditions": "hum, read-out: % inh at 10 μM", "text": "(§2) Nonetheless, as a non-aryl/heterobiaryl acetylene mGlu5 NAM with an encouraging in vivo rodent PK profile, we wished to further assess VU6043653 as a novel chemotype. Therefore, we compared metabolites in multiple species to better understand species differences in clearance and metabolism. […] Consistent with the high plasma clearance observed in dogs, high turnover was observed more so in dog hepatocytes than any other species tested (see the Supporting Information for additional details and results). To further evaluate our novel chemotype, the off-target and safety/toxicity profiles for this compound were further investigated.\n(§3) Table S2. Lead Profiling Screen – Eurofins Panlabs for VU6043653."}, "Adrenergic α1A": {"biological_target": "Adrenergic α1A (Homo sapiens, UniProt P35348)", "sequence (P35348 whole entry)": "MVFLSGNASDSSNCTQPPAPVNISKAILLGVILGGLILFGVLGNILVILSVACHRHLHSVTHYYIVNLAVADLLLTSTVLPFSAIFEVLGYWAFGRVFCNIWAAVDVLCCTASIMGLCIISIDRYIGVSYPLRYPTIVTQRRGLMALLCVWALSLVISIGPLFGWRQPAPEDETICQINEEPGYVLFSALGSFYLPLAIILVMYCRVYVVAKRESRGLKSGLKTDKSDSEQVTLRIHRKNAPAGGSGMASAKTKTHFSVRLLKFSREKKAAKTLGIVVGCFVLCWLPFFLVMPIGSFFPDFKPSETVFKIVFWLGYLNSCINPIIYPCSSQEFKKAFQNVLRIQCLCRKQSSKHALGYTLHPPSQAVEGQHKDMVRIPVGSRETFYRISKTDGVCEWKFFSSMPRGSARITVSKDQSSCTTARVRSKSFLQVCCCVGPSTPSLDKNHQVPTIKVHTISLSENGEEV", "assay": "Lead Profiling Screen, Eurofins Panlabs", "format": "binding", "conditions": "hum, read-out: % inh at 10 μM", "text": "as §2, §3"}, "Adrenergic α1B": {"biological_target": "Adrenergic α1B (Homo sapiens, UniProt P35368)", "assay": "Lead Profiling Screen, Eurofins Panlabs", "format": "binding", "conditions": "hum, read-out: % inh at 10 μM", "text": "as §2, §3"}, "Adrenergic α1D": {"biological_target": "Adrenergic α1D (Homo sapiens, UniProt P25100)", "assay": "Lead Profiling Screen, Eurofins Panlabs", "format": "binding", "conditions": "hum, read-out: % inh at 10 μM", "text": "as §2, §3"}, "Adrenergic α2A": {"biological_target": "Adrenergic α2A (Homo sapiens, UniProt P08913)", "assay": "Lead Profiling Screen, Eurofins Panlabs", "format": "binding", "conditions": "hum, read-out: % inh at 10 μM", "text": "as §2, §3"}, "Bradykinin B2": {"biological_target": "Bradykinin B2 (Homo sapiens, UniProt P30411)", "sequence (P30411 whole entry)": "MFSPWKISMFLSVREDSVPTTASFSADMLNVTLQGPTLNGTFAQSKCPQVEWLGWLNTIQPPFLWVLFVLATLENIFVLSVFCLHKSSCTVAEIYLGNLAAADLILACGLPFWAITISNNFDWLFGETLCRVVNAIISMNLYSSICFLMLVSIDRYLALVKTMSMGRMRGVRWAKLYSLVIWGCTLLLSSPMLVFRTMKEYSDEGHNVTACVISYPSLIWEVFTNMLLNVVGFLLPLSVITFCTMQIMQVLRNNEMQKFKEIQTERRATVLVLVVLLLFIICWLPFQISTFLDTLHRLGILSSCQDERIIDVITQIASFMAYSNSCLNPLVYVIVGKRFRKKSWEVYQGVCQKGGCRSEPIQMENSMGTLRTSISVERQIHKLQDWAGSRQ", "assay": "Lead Profiling Screen, Eurofins Panlabs", "format": "binding", "conditions": "Bradykinin B2, hum, read-out: % inh at 10 μM", "text": "as §2, §3"}, "Endothelin ETA": {"biological_target": "Endothelin ETA (Homo sapiens, UniProt P25101)", "assay": "Lead Profiling Screen, Eurofins Panlabs", "format": "binding", "conditions": "hum, read-out: % inh at 10 μM", "text": "as §2, §3"}, "Glucocorticoid": {"biological_target": "Glucocorticoid (Homo sapiens, UniProt P04150)", "sequence (P04150 whole entry)": "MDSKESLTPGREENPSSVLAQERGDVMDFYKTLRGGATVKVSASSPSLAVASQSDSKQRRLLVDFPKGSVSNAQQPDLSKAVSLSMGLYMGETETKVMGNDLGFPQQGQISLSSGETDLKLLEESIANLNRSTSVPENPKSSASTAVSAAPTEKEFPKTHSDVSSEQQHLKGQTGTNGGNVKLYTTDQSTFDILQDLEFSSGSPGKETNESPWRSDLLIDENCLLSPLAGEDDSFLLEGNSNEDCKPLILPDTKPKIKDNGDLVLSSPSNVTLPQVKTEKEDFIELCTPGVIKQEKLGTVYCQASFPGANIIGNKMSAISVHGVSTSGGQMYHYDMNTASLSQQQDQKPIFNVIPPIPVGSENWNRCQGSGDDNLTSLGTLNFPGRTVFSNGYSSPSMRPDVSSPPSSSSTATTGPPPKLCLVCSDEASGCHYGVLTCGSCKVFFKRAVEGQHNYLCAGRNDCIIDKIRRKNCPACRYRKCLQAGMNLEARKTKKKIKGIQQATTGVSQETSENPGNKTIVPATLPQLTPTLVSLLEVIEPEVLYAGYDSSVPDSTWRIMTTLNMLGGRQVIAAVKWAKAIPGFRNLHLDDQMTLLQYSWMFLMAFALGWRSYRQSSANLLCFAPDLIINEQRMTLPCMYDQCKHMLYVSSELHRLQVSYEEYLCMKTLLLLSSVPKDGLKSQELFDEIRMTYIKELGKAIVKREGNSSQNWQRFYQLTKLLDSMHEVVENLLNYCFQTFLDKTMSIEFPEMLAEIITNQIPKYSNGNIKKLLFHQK", "assay": "Lead Profiling Screen, Eurofins Panlabs", "format": "binding", "conditions": "hum, read-out: % inh at 10 μM", "text": "as §2, §3"}, "Muscarinic M1": {"biological_target": "Muscarinic M1 (Homo sapiens, UniProt P11229)", "assay": "Lead Profiling Screen, Eurofins Panlabs", "format": "binding", "conditions": "Muscarinic M1, hum, read-out: % inh at 10 μM"}, "Opiate κ (OP2, KOP)": {"biological_target": "Opiate κ (OP2, KOP) (Homo sapiens, UniProt P41145)", "assay": "Lead Profiling Screen, Eurofins Panlabs", "format": "binding", "conditions": "hum, read-out: % inh at 10 μM"}, "Phorbol Ester": {"tested_on": "Phorbol Ester", "assay": "Lead Profiling Screen, Eurofins Panlabs", "format": "binding", "conditions": "mouse"}, "[1]": {"biological_target": "Platelet Activating Factor (PAF) (Homo sapiens, UniProt P25105)", "assay": "Lead Profiling Screen, Eurofins Panlabs", "format": "binding", "conditions": "hum, read-out: % inh at 10 μM"}, "[2]": {"biological_target": "Transporter, Dopamine (DAT) (Homo sapiens, UniProt Q01959)", "sequence (Q01959 whole entry)": "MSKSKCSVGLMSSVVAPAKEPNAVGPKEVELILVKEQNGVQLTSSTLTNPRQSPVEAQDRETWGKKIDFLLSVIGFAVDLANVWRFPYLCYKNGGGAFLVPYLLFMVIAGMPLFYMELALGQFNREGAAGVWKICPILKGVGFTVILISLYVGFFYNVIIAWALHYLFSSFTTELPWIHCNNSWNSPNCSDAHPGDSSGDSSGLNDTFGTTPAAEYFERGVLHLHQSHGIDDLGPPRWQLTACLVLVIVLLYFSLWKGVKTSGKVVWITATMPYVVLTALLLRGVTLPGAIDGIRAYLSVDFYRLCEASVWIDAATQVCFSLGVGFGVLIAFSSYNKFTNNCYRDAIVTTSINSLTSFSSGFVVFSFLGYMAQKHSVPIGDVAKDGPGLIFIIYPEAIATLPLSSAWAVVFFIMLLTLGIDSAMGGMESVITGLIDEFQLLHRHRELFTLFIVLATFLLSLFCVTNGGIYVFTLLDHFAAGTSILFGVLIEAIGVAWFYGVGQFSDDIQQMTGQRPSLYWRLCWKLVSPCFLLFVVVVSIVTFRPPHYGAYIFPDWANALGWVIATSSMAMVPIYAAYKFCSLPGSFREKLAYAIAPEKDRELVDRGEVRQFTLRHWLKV", "assay": "Lead Profiling Screen, Eurofins Panlabs", "format": "binding", "conditions": "hum, read-out: % inh at 10 μM"}, "[3]": {"biological_target": "Transporter, Norepinephrine (NET) (Homo sapiens, UniProt P23975)", "sequence (P23975 whole entry)": "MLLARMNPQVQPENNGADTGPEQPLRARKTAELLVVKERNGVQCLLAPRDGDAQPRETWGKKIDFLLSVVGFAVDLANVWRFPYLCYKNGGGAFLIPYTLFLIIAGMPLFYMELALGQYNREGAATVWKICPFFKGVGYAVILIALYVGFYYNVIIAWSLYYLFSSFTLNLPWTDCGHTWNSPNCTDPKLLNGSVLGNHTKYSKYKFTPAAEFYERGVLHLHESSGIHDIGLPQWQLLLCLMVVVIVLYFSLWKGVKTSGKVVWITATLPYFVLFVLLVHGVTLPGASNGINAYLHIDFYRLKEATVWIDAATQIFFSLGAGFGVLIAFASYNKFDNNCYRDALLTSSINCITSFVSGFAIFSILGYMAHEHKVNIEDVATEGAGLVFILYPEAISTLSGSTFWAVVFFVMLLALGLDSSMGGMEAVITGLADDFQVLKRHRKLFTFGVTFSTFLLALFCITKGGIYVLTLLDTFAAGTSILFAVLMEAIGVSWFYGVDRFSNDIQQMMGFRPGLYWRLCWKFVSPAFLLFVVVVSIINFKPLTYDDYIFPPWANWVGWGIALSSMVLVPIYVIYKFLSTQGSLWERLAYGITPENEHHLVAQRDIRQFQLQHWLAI", "assay": "Lead Profiling Screen, Eurofins Panlabs", "format": "binding", "conditions": "hum, read-out: % inh at 10 μM"}}, "data": [{"smiles": "Cc1cc(Oc2cnn(C)c2)cc(C(=O)Nc2ccc(F)cn2)n1", "note": "[22iA]", "values": [{"measurement": "IC50, human mGlu7", "setting": "human mGlu7", "value": "inactive"}, {"measurement": "IC50, human mGlu8", "setting": "human mGlu8", "value": "inactive"}, {"measurement": "inhibition at 10 µM", "setting": "Adenosine A2A", "value": 9, "unit": "%"}, {"measurement": "inhibition at 10 µM", "setting": "Adrenergic α1A", "value": 0, "unit": "%"}, {"measurement": "inhibition at 10 µM", "setting": "Adrenergic α1B", "value": 3, "unit": "%"}, {"measurement": "inhibition at 10 µM", "setting": "Adrenergic α1D", "value": 3, "unit": "%"}, {"measurement": "inhibition at 10 µM", "setting": "Adrenergic α2A", "value": 8, "unit": "%"}, {"measurement": "inhibition at 10 µM", "setting": "Bradykinin B2", "value": 1, "unit": "%"}, {"measurement": "inhibition at 10 µM", "setting": "Endothelin ETA", "value": -2, "unit": "%"}, {"measurement": "inhibition at 10 µM", "setting": "Glucocorticoid", "value": 10, "unit": "%"}, {"measurement": "inhibition at 10 µM", "setting": "Muscarinic M1", "value": -13, "unit": "%"}, {"measurement": "inhibition at 10 µM", "setting": "Opiate κ (OP2, KOP)", "value": 2, "unit": "%"}, {"measurement": "% inh at 10 μM", "setting": "Phorbol Ester", "value": -1, "unit": "%"}, {"measurement": "inhibition at 10 µM", "setting": "[1]", "value": 3, "unit": "%"}, {"measurement": "inhibition at 10 µM", "setting": "[2]", "value": 25, "unit": "%"}, {"measurement": "inhibition at 10 µM", "setting": "[3]", "value": 63, "unit": "%"}]}]}
